Results reported in patent US9029110B2, “Method for producing functional microbially fermented tea extract containing polyphenol derivative” (Kabushiki Kaisha Riverson, priority 2009, dated 2015).

Legend:
PTP1B = PTP1B expression inhibitory effect, Western blotting; type: cell-based
Protocol: (§1) 3T3-L1 adipocytes can be allowed to grow and maintained in a 5% CO2 environment in high-glucose DMEM containing 50 U/ml penicillin, 50 μg/ml streptomycin, and 10% FCS. The 3T3-L1 cells were subcultured in a dish of 3.5 cm in diameter until confluent and then sufficiently differentiated into adipocytes by culture for another 2 days in the presence of insulin (10 μg/ml), dexamethasone (0.25 μM), and IBMX (3-isobutyl-1-methylxanthine) (0.5 mM). Teadenol A (10 μM) or DMSO (vehicle control) was added to the sufficiently differentiated 3T3-L1 adipocytes, and each culture supernatant was collected after 8, 24, 32, and 48 hours. The amount of adiponectin secreted was determined by Western blotting method.
Teadenol A (10 μM) or DMSO (vehicle control) was added to the sufficiently differentiated 3T3-L1 adipocytes. After culture for 8, 24, 32, and 48 hours, the cells were collected, and the amount of PTP1B […] and the amount of α-tubulin were determined by Western blotting method.

3T3-L1 adipocytes = test: Adiponectin secretion promoting effect, Western blotting of culture supernatant; type: cell-based; details: for amount of adiponectin secreted (Mean, DMSO control = 100.00): differentiated 3T3-L1 adipocytes, 3 runs
Protocol: as §1

[1] = Test of the functions of decreasing visceral fat and increasing adiponectin (method not described); details: as a result of the test, no data shown
[2] = stated as 'can be confirmed', no data shown

SMILES | PTP1B expression inhibitory effect (PTP1B; [2]) | adiponectin secretion promoting effect (3T3-L1 adipocytes; [2]) | PTP1B expression inhibitory activity (PTP1B; statistically significant difference in the samples after 32 hours, 10 μM, 3T3-L1 adipocytes) | amount of adiponectin secreted (Mean, DMSO control = 100.00) (3T3-L1 adipocytes; 10 μM, 8 h) | amount of adiponectin secreted (Mean, DMSO control = 100.00) (3T3-L1 adipocytes; 10 μM, 24 h) | amount of adiponectin secreted (Mean, DMSO control = 100.00) (3T3-L1 adipocytes; 10 μM, 32 h) | amount of adiponectin secreted (Mean, DMSO control = 100.00) (3T3-L1 adipocytes; 10 μM, 48 h) | adiponectin secretion promoting activity (3T3-L1 adipocytes; statistically significant difference in the samples after 24 and 48 hours, 10 μM) | function on adiponectin [1] | function on visceral fat [1]
C=C1C=C(C(=O)O)O[C@@H]2Cc3c(O)cc(O)cc3O[C@@H]12 [Teadenol B, teadenol B] | effective | effective |  |  |  |  |  |  |  | 
C=C1C=C(C(=O)O)O[C@@H]2Cc3c(O)cc(O)cc3O[C@H]12 [Teadenol A, teadenol A] |  |  | effective | 166.00 | 214.67 | 153.33 | 147.67 | effective | increasing adiponectin | decreasing visceral fat
